Assay results reported in ChEMBL document CHEMBL1201862, “PubChem BioAssay data set” (2004).
Active and inactive are the calls of the source. Unless noted, the rule behind the calls is not given here.

Assays:
[1] = molecular target: 5-hydroxytryptamine receptor 4 (Homo sapiens, UniProt Q13639); assay: Late-stage radioligand binding dose response assay to identify inhibitors of NADPH oxidase 1 (NOX1): PDSP screen Ki. [Related pubchem assays (depositor defined):AID1792, AID1796, AID1823, AID2532, AID2538, AID2539, AID2541, AID2545, AID2556, AID2664, AID2752, AID2773, AID434992, AID434993, AID434997, AID435002, AID435009, AID435013, AID463255 …
D(3) dopamine receptor = D(3) dopamine receptor (Homo sapiens, UniProt P35462); assay: as above
[2] = molecular target: Muscarinic acetylcholine receptor M3 (Homo sapiens, UniProt P20309); assay: as above
Chain of Muscarinic acetylcholine receptor M3 (P20309 whole entry): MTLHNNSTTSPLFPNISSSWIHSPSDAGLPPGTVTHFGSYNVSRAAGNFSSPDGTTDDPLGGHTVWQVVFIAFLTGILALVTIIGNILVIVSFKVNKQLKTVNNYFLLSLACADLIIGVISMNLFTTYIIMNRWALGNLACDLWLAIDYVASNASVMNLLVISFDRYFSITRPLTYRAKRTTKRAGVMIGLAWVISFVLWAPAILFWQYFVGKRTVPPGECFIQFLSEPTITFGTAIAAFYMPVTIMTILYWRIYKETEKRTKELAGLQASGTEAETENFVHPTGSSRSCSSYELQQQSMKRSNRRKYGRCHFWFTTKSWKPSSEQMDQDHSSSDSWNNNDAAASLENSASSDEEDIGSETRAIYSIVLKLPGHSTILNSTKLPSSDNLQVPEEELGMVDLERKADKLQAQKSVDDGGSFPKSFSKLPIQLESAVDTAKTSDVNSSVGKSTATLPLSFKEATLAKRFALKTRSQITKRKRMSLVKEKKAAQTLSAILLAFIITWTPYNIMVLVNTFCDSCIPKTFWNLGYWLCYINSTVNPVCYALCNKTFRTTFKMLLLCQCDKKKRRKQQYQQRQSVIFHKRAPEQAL

[3] = HEp-2 cell cytotoxicity, dose response, cytotoxicity control for RSV inhibitor project, HTS (AID 2410); assay type: functional; conditions: human respiratory syncytial virus
[4] = molecular target: 5-hydroxytryptamine receptor 2B (Homo sapiens, UniProt P41595); assay: Late-stage radioligand binding dose response assay to identify inhibitors of NADPH oxidase 1 (NOX1): PDSP screen Ki. [Related pubchem assays (depositor defined):AID1792, AID1796, AID1823, AID2532, AID2538, AID2539, AID2541, AID2545, AID2556, AID2664, AID2752, AID2773, AID434992, AID434993, AID434997, AID435002, AID435009, AID435013, AID463255 …
Chain of 5-hydroxytryptamine receptor 2B (P41595 whole entry): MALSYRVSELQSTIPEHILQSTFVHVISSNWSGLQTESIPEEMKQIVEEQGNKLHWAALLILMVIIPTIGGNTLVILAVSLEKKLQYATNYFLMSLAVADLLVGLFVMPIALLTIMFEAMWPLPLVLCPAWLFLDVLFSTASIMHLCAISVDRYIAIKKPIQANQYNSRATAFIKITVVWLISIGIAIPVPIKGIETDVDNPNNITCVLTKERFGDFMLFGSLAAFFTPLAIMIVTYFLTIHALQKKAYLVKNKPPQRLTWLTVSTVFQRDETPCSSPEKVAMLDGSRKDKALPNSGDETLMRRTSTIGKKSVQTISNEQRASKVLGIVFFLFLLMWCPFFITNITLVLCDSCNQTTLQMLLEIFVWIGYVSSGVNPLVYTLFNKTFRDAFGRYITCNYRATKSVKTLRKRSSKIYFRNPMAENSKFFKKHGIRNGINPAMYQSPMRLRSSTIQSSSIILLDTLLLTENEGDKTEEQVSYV

[5] = molecular target: 5-hydroxytryptamine receptor 2C (Homo sapiens, UniProt P28335); assay: as above
NADPH oxidase 1 = NADPH oxidase 1 (Homo sapiens, UniProt Q9Y5S8); assay: Luminescence-based cell-based dose response assay to identify inhibitors of NADPH oxidase 1 (NOX1).; assay type: functional
[6] = molecular target: Alpha-2A adrenergic receptor (Homo sapiens, UniProt P08913); assay: Late-stage radioligand binding dose response assay to identify inhibitors of NADPH oxidase 1 (NOX1): PDSP screen Ki. [Related pubchem assays (depositor defined):AID1792, AID1796, AID1823, AID2532, AID2538, AID2539, AID2541, AID2545, AID2556, AID2664, AID2752, AID2773, AID434992, AID434993, AID434997, AID435002, AID435009, AID435013, AID463255 …
[7] = cytotoxicity toward NIH3T3 fibroblasts, dose response, counter-screen, cell-based, ATP luminescence, mouse fibroblasts (AID 2010); assay type: functional;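 also: cells exposed to compound for about 90 hours before reading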
[8] = inhibitors of intracellular T. cruzi replication, confirmation, NIH3T3 host cells, beta-gal luminescence (AID 2044); assay type: functional, cell-based;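 also: intracellular parasites grown in NIH/3T3 mouse fibroblasts as host cells; luminescent beta-galactosidase reporter signal from transgenic T. cruzi replicating inside host cells; inhibitors lower the luminescence signal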
[9] = molecular target: Sodium-dependent serotonin transporter (Homo sapiens, UniProt P31645); assay: Late-stage radioligand binding dose response assay to identify inhibitors of NADPH oxidase 1 (NOX1): PDSP screen Ki. [Related pubchem assays (depositor defined):AID1792, AID1796, AID1823, AID2532, AID2538, AID2539, AID2541, AID2545, AID2556, AID2664, AID2752, AID2773, AID434992, AID434993, AID434997, AID435002, AID435009, AID435013, AID463255 …
[10] = molecular target: Sodium-dependent noradrenaline transporter (Homo sapiens, UniProt P23975); assay: as above
Oxytocin receptor = Oxytocin receptor (Homo sapiens, UniProt P30559); assay: as above
[11] = molecular target: Glutamate receptor ionotropic, kainate 5 (Rattus norvegicus, UniProt Q63273); assay: as above
[12] = molecular target: Alpha-2B adrenergic receptor (Homo sapiens, UniProt P18089); assay: as above
[13] = molecular target: Sigma non-opioid intracellular receptor 1 (Homo sapiens, UniProt Q99720); assay: as above
[14] = molecular target: Muscarinic acetylcholine receptor M4 (Homo sapiens, UniProt P08173); assay: as above
[15] = molecular target: Muscarinic acetylcholine receptor M5 (Homo sapiens, UniProt P08912); assay: as above
[16] = molecular target: Alpha-2C adrenergic receptor (Homo sapiens, UniProt P18825); assay: as above
[17] = molecular target: DNA dC->dU-editing enzyme APOBEC-3A (Homo sapiens, UniProt P31941); assay: Dose Response confirmation of small molecule APOBEC3A DNA Deaminase Inhibitors via a fluorescence-based single-stranded DNA deaminase assay. [Related pubchem assays (depositor defined):AID493011, AID493024]; assay type: functional
Chain of DNA dC->dU-editing enzyme APOBEC-3A (P31941 whole entry): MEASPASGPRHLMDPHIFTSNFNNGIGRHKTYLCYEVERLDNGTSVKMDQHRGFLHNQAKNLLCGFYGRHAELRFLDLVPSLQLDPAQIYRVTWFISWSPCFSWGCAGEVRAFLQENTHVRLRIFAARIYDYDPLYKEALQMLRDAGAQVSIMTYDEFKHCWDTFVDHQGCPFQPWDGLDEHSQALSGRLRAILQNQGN

Bcl-2-like protein 10 = Bcl-2-like protein 10 (Homo sapiens, UniProt Q9HD36); assay: displacers of TR3 peptide from Bcl-B, primary screen, selectivity assay for Bfl-1 inhibitor project, biochemical, fluorescence polarization, FITC-TR3 peptide (AID 748);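 also: fluorescence polarization from a fluorescein-labelled TR3 peptide binding purified Bcl-B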
[18] = molecular target: DNA dC->dU-editing enzyme APOBEC-3G (Homo sapiens, UniProt Q9HC16); assay type: functional;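 also: Dose-response counterscreen measuring inhibition of APOBEC3G DNA deaminase activity, run while confirming APOBEC3A inhibitors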
[19] = blockers of SFLLRN-triggered platelet ATP secretion – cell-based, human platelets, luminescence, dry powder, dose response (AID 493100); assay type: functional
Wee1-like protein kinase = Wee1-like protein kinase (Homo sapiens, UniProt P30291); assay: G2/M cell cycle arrest in HeLa, late-stage follow-up, mechanism study for Wee1 degradation inhibitor project, FACS, panel member Wee1 Degradation (AID 2088)
Chain of Wee1-like protein kinase (P30291 whole entry): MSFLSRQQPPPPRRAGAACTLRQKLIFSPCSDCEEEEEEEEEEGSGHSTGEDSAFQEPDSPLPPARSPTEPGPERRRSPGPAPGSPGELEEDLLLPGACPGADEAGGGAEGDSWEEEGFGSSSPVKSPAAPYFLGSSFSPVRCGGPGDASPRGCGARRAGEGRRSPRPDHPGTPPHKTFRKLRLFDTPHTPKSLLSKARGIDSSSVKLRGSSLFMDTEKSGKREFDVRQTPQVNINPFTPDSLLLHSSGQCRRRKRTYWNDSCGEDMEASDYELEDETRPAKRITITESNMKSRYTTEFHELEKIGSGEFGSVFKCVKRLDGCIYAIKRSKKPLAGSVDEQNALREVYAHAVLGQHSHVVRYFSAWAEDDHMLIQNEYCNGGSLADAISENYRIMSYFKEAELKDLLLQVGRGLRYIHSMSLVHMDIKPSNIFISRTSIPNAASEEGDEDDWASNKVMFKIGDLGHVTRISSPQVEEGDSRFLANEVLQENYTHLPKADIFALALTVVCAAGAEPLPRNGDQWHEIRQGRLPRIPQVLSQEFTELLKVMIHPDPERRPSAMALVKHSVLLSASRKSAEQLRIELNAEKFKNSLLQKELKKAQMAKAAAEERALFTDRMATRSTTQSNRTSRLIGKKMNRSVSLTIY

[20] = molecular target: G2/mitotic-specific cyclin-B1 (Homo sapiens, UniProt P14635); assay: G2/M cell cycle arrest in HeLa, late-stage follow-up, mechanism study for Wee1 degradation inhibitor project, FACS, panel member Cyclin B Degradation (AID 2088)
J774.A1 = assay: Confirmation of image-based Screening Assay for Inhibitors of Phagocytosis. [Related pubchem assays (depositor defined):AID1029, AID1643]; assay type: functional, cell-based; conditions: Mus musculus
BJ [21] = assay: cytotoxicity toward BJ-TERT-LT-ST fibroblasts, dose response, cell-based, RAS-independent, luminescence (AID 1935); assay type: functional; conditions: Homo sapiens;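 also: BJ fibroblasts immortalized with TERT plus LT and ST oncogenes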
BJ [22] = assay: cells; assay type: functional, cell-based; conditions: Homo sapiens
[23] = cytotoxicity toward DRD oncogenic fibroblasts, dose response, cell-based, non-viral oncogenic, luminescence (AID 1934); assay type: functional; conditions: Homo sapiens
[24] = Luminescence Cell-Based Dose Response HTS to Identify Inhibitors of 5'UTR Stem-Loop Driven Prion Protein mRNA Translation in H4 Neuroglioblastoma Cells. [Related pubchem assays: 1827 (Project Summary), 1813 (Primary HTS)]; assay type: functional
[25] = cytotoxicity in HEK-293T cells, dose response, cytotoxicity control for TCR NF-kB inhibitor project, luminescence, T-cell screen hits (AID 489026); assay type: functional, cell-based;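 also: cells exposed to compound about 14 hours before the viability readout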
[26] = inhibitors of SNCA 5'UTR-driven reporter translation, confirmation, H4 neuroglioma cells, luminescence (AID 1988); assay type: functional, cell-based
[27] = inhibitors of firefly luciferase expression or activity, dose response, H4 neuroglioma cells, luminescence (AID 1990); assay type: functional, cell-based
BJ [28] = assay: cytotoxicity toward BJ-TERT fibroblasts, dose response, cell-based, RAS-independent, luminescence (AID 1933); assay type: functional; conditions: Homo sapiens
[29] = molecular target: T1, Ubiquitin-conjugating enzyme E2 N (Homo sapiens, UniProt P61088); assay type: functional;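 also: Dose-response confirmation in a TR-FRET assay detecting UBC13-driven polyubiquitin chain formation, inhibition measured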
T1 sequence (P61088 whole entry): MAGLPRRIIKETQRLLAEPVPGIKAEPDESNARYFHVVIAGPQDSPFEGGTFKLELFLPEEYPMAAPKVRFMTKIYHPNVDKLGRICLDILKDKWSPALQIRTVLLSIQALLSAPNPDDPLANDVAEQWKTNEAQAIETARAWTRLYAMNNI

[30] = Cytotoxicity screening for potential Inhibitors of Bacterial Capsule Biogenesis. [Related pubchem assays (depositor defined):AID488970]; assay type: functional
INS1 = assay: beta cell apoptosis inhibitors, cytokine rescue, dose response, luminescence, retest (AID 449756); assay type: functional, cell-based; conditions: Rattus norvegicus;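 also: cell death triggered by IL-1 beta plus TNF-alpha plus IFN-gamma mixture; protective hits raise ATP signal compared with cytokine alone wells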
[31] = molecular target: Cystic fibrosis transmembrane conductance regulator/Golgi-associated PDZ and coiled-coil motif-containing protein (Homo sapiens, UniProt P13569+Q9HD26); assay: CAL PDZ peptide-binding inhibitors, dose response, biochemical, fluorescence polarization, Cerulean-tagged CAL PDZ, cherry-picks (AID 504773)
Saccharomyces cerevisiae = assay: NALP1 inhibitor project selectivity study, Caspase-1/ASC signal blockade IC50 in S. cerevisiae (AID 488863); assay type: functional, organism-based
[32] = molecular target: NACHT, LRR and PYD domains-containing protein 1 (Homo sapiens, UniProt Q9C000); assay: NALP1 inhibitors in yeast, dose response, luminescent (AID 488860); assay type: functional
[33] = molecular target: Intestinal-type alkaline phosphatase (Homo sapiens, UniProt P09923); assay: Dose Response confirmation of uHTS hits from a small molecule inhibitors of human intestinal alkaline phosphatase via a luminescent assay. [Related pubchem assays (depositor defined):AID2544, AID2574]; assay type: functional
[34] = molecular target: Voltage-gated N-type calcium channel alpha-1B subunit/Amyloid beta A4 precursor protein-binding family A member 1 (Homo sapiens, UniProt Q00975+Q02410); assay: disruptors of Mint-PDZ/N-type channel peptide interaction – biochemical, HTRF, SAR follow-up (AID 2489); assay type: functional
Chain of Voltage-gated N-type calcium channel alpha-1B subunit/Amyloid beta A4 precursor protein-binding family A member 1 (Q00975 whole entry): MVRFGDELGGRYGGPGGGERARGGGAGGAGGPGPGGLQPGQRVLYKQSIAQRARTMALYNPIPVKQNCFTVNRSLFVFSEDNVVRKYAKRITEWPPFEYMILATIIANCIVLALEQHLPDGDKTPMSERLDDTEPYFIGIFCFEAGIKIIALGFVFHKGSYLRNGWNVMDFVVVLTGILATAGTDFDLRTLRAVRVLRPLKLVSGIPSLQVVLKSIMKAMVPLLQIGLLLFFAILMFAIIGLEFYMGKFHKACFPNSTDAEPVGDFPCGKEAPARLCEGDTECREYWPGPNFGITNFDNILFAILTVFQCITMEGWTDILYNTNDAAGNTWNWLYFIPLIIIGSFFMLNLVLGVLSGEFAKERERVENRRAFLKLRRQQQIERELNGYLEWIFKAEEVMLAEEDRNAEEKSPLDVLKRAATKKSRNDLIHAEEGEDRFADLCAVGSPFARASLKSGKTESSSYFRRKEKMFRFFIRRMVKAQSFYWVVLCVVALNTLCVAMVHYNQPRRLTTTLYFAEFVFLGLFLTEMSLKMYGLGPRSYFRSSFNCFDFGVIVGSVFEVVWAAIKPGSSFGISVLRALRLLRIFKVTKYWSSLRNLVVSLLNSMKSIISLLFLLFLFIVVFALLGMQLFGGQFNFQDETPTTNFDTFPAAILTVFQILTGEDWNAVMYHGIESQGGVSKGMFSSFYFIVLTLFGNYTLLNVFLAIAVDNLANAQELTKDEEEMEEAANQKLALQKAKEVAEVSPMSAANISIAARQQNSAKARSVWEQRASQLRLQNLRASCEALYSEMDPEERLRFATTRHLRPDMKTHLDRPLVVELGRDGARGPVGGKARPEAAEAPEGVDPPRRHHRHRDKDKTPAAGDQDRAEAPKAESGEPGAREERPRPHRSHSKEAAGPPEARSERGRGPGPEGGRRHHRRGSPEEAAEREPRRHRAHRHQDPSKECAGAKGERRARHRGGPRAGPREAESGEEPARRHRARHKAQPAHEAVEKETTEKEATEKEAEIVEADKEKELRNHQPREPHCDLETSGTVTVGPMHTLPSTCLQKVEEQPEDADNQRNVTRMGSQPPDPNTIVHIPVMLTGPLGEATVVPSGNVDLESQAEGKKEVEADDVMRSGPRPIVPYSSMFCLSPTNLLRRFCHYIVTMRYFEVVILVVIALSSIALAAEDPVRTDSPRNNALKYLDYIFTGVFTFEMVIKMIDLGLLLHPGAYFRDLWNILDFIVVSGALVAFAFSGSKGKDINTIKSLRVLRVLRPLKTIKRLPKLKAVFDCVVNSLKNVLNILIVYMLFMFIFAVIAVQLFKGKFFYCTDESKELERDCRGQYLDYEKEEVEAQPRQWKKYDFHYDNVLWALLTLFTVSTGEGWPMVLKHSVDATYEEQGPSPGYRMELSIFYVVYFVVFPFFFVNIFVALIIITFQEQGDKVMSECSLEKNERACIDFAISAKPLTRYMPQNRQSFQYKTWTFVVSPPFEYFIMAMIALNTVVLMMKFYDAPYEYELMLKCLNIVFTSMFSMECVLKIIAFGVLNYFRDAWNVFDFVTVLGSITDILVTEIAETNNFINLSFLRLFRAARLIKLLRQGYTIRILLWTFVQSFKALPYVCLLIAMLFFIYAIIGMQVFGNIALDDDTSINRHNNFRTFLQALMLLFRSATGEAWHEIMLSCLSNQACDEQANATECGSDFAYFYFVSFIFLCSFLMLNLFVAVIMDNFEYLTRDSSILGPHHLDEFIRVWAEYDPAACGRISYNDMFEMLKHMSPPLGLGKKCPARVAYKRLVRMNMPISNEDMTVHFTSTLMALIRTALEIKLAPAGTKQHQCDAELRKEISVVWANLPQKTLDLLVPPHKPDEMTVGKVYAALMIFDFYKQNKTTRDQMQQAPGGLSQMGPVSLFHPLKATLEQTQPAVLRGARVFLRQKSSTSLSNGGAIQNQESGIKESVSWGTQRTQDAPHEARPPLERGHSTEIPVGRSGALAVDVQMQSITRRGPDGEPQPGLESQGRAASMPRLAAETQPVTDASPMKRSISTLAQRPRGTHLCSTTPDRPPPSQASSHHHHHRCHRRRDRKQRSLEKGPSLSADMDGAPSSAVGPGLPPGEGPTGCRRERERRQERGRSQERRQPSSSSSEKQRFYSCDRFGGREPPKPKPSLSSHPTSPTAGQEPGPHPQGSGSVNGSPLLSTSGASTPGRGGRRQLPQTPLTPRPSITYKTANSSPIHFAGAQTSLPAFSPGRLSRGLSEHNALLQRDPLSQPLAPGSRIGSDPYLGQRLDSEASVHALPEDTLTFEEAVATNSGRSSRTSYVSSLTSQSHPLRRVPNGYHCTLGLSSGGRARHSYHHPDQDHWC
Chain of Voltage-gated N-type calcium channel alpha-1B subunit/Amyloid beta A4 precursor protein-binding family A member 1 (Q02410 whole entry): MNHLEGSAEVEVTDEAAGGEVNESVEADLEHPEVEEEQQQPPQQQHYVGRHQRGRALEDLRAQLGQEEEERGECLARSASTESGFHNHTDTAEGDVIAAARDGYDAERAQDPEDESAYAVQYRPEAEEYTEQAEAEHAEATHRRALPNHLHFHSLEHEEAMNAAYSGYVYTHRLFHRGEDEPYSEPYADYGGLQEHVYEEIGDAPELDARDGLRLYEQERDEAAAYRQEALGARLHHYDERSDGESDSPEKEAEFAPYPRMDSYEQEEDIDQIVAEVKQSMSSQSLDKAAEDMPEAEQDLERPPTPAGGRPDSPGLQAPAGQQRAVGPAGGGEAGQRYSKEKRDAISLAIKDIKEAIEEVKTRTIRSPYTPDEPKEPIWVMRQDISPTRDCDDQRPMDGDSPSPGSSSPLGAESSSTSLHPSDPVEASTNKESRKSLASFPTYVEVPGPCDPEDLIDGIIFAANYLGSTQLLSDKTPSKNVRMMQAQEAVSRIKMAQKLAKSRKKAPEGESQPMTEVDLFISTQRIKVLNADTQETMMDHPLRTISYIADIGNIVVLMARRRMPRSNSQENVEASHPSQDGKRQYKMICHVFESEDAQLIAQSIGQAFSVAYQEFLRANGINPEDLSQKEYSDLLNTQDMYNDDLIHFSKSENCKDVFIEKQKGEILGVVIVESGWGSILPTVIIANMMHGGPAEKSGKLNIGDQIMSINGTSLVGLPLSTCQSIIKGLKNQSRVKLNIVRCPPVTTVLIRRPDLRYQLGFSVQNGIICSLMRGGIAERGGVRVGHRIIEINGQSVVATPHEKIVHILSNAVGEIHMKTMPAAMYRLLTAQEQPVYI

[35] = molecular target: T2, Tyrosine-protein phosphatase non-receptor type 7 (Homo sapiens, UniProt P35236); assay: redox-dependent HePTP inhibition, mechanism study, biochemical, fluorescence (AID 2068); assay type: functional
T2 sequence (P35236 whole entry): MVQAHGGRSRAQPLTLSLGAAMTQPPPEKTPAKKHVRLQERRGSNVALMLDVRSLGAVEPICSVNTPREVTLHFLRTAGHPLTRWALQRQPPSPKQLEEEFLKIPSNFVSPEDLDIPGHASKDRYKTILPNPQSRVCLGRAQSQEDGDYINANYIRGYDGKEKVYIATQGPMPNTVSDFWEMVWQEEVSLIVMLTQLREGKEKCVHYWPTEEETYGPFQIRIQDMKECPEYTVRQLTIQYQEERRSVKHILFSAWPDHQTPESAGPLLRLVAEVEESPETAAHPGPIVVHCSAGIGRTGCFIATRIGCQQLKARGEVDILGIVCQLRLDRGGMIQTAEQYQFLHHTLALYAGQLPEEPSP

CN1c2ccccc2Sc2cc(N)ccc21
Ki [1]: > 10 µM (inactive) | Ki (D(3) dopamine receptor): 9.06 µM (active) | Ki [2]: 10 µM (inactive) | CC50 [3]: 27.1 µM (active) | Ki [4]: 0.556 µM (active) | Ki [5]: 2.96 µM (active) | IC50 (NADPH oxidase 1): 0.044 µM (active) | Ki [6]: 6.92 µM (active) | EC50 [7]: > 60 µM (not active) | EC50 [8]: 1.27 µM (active) | Ki [9]: 10 µM (active) | Ki [10]: 3.94 µM (active) | Ki (Oxytocin receptor): > 10 µM (inactive) | Ki [11]: > 10 µM (inactive) | Ki [12]: 2.72 µM (active) | Ki [13]: > 10 µM (inactive) | Ki [14]: > 10 µM (inactive) | Ki [15]: > 10 µM (inactive) | Ki [16]: 5.76 µM (active)

CCC1=[N+](C)CCn2c(C)ccc21
IC50 [17]: 1.51 µM (active) | IC50 (Bcl-2-like protein 10): > 100 µM (inactive) | IC50 [18]: 1.32 µM (active)

CCCC(=O)Nc1cccc(NC(=O)c2ccccc2C)c1
AC50 [19]: 5.5 µM (active)

Cc1cc(=O)[nH]c(-n2nc(C)cc2NC(=O)c2cccs2)n1
EC50 (Wee1-like protein kinase): > 49.7 µM (inactive) | EC50 [20]: > 49.7 µM (inactive)

CCOC(=O)Nc1nc(-c2ccccc2)c(C(=O)c2ccccc2)s1
IC50 (J774.A1): 0.215 µM (active) | EC50 (BJ [21]): 4.12 µM (inconclusive) | EC50 (BJ [22]): 17.1 µM (inconclusive) | EC50 [23]: 12.3 µM (inconclusive) | EC50 [24]: 1.38 µM (active) | IC50 [25]: 68.3 µM (inactive) | EC50 [26]: 0.198 µM (active) | EC50 [27]: 1.41 µM (active) | EC50 (BJ [28]): 7.17 µM (inconclusive)

N=C(N)N/N=C/c1ccc(OCc2ccccc2)cc1
IC50 [29]: > 20 µM (inactive) | EC50 [7]: > 60 µM (not active) | EC50 [8]: 0.92 µM (active) | CC50 [30]: 10.4 µM (active) | AC50 (INS1): 6.57 µM (active)

O=C1OC(c2ccccc2)(c2ccccc2)c2ccccc21
AC50 [31]: 17.3 µM (active)

CCCCC(=O)Nc1ccc(C(=O)NNC(=S)NC(=O)c2ccco2)cc1
IC50 (Saccharomyces cerevisiae): 18.8 µM (active) | IC50 [32]: 25.7 µM (active)

Cc1[nH]n(-c2nc(-c3ccccc3F)cc(=O)[nH]2)c(=O)c1CCO
IC50 [33]: 1.07 µM (active)

O=C(Nc1ccc2nc(-c3ccco3)c(-c3ccco3)nc2c1)N1CCOCC1
IC50 [34]: 22.3 µM (active) | IC50 [35]: 0.693 µM (active)
